Consider six molecules from ChEMBL document CHEMBL1201862, “PubChem BioAssay data set” (2004).

Each structure is given as a SMILES string. Active and inactive are the calls of the source.

The subject of one test is HeLa. Briefly: HeLa cell cytotoxicity, dose response, cytotoxicity control, 24 h, cherry-picked samples (AID 504726).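 Note: potency for cytotoxicity as loss of luminescence signal.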 Type of test: functional, cell-based. The conditions noted are these: Homo sapiens.
Test [1] can be described thus: cells. Type of test: functional.
The next test has as its system Salmon testes DNA. Briefly: DNA intercalators displacing acridine orange, dose response, artefact control for KSHV LANA DNA-binding inhibitor project, biochemical, fluorescence polarization, cherry-picked samples, set 2 (AID 504727). On the set-up: species or system Salmonidae.
Test [2] can be described thus: cells. Type of test: functional, cell-based.
Test [3] can be described thus: cells. Type of test: functional, cell-based. This is another data set of the same source.
Test [4] addresses T1, Dual specificity protein phosphatase 6 (Rattus norvegicus, UniProt Q64346).
T1 sequence (Q64346 whole entry): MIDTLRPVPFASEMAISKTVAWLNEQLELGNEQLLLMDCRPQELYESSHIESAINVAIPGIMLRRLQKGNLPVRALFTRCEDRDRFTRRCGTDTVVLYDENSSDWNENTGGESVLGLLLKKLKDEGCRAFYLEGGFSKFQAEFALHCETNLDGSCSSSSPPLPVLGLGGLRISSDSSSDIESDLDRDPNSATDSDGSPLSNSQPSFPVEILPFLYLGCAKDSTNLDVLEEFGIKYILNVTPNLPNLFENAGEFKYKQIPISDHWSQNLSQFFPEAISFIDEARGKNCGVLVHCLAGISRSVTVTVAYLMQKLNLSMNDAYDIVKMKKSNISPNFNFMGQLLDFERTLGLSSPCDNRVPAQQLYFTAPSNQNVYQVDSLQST

The target of test [5] is Heat shock cognate 71 kDa protein (Homo sapiens, UniProt P11142). The experiment in a line: In Vitro Hsc70 Dose Response Fluorescence Polarization Assay. [Related pubchem assays: 1072 ]. For orientation: In fluorescence polarisation assays a small probe gives low polarisation when free and higher when bound to something large.
The target in test [6] is T1, Dual specificity protein phosphatase 6. The experiment in a line: MKP-3 phosphatase inhibitors, primary screen, biochemical, rat enzyme, in vitro (AID 425).
In test [7] the target is T2, Tyrosine-protein phosphatase non-receptor type 7 (Homo sapiens, UniProt P35236).
T2 sequence (P35236 whole entry): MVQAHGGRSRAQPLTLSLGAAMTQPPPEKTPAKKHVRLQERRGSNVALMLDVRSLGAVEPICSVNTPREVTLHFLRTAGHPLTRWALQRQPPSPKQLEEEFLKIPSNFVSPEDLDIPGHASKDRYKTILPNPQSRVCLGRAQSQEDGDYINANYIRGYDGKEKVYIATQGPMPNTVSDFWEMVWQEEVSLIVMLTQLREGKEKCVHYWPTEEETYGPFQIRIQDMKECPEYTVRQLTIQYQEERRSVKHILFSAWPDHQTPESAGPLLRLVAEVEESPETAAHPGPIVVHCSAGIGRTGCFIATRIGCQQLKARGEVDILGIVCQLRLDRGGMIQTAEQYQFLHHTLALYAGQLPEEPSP
Type of test: functional.

Test [8] deals with Glyceraldehyde-3-phosphate dehydrogenase (Homo sapiens, UniProt P04406).
The target of test [9] is Induced myeloid leukemia cell differentiation protein Mcl-1 (Homo sapiens, UniProt Q07820). Type of test: functional.
The next test has as its target T3, Bcl-2-like protein 10 (Homo sapiens, UniProt Q9HD36).
T3 sequence (Q9HD36 whole entry): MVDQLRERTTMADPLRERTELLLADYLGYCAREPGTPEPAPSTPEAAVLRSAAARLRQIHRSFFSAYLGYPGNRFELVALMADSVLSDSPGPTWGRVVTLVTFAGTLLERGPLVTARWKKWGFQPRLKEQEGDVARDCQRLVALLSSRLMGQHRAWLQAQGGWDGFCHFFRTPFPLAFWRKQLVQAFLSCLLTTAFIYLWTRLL
The experiment in a line: displacers of TR3 peptide from Bcl-B, primary screen, selectivity assay for Bfl-1 inhibitor project, biochemical, fluorescence polarization, FITC-TR3 peptide (AID 748).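 Note: fluorescence polarization from a fluorescein-labelled TR3 peptide binding purified Bcl-B.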

In another test the target is Large T antigen (Simian virus 40, UniProt P03070). Type of test: functional, Betapolyomavirus macacae.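 Note: Confirmatory-stage PubChem screen for compounds that inhibit SV40 T antigen.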
The target of test [10] is T1, Dual specificity protein phosphatase 6. Type of test: functional.
The target of test [11] is T4, E3 ubiquitin-protein ligase XIAP (Homo sapiens, UniProt P98170). Briefly: Counter Screen using XIAP-Bir3 for Chemical Antagonists of Bir1/2 domains of IAP-family anti-apoptotic proteins. [Related pubchem assays (depositor defined):AID1018, AID1449, AID1514, AID1638, AID1749, AID1750, AID488957, AID488963].
The target of test [12] is Eukaryotic translation initiation factor 4E (Mus musculus, UniProt P63073). Briefly: eIF4E–eIF4G protein interaction inhibitors, dose response, biochemical, TR-FRET (AID 855).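 Note: potency for disrupting eIF4E binding to eIF4GI seen as loss of FRET.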 Type of test: functional.
The target of test [13] is Heat shock 70 kDa protein 1A (Homo sapiens, UniProt P0DMV8). The experiment in a line: Hsp70 inhibitors, SAR follow-up, biochemical, fluorescence polarization (AID 1072).
Test [14] concerns the target T4, E3 ubiquitin-protein ligase XIAP. The experiment in a line: XIAP antagonists, biochemical, IAP family, fluorescence polarization (AID 1018). Type of test: functional.
The target in test [15] is Neurotensin receptor type 1 (Homo sapiens, UniProt P30989). Type of test: functional.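 Note: Image-based confirmatory dose-response assay measuring agonist activity at NTR1; NTR1-expressing U2OS osteosarcoma cells imaged for beta-arrestin GFP spot formation; agonist potency where compounds increase beta-arrestin recruitment.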
Test [16] in a line: Luminescence Cell-Based Dose Retest to Confirm Inhibitors of Cancer Stem Cells. [Related pubchem assays (depositor defined):AID2717, AID2721]. Type of test: functional. The settings on record: Homo sapiens.
In test [17] the target is Transitional endoplasmic reticulum ATPase (Homo sapiens, UniProt P55072). Briefly: Luminescence dose response biochemical high throughput screening assay for inhibitors of the p97 ATPase: synthesized compounds. [Related pubchem assays: 1481, 1517 ].
For test [18], the target named is T5, Ubiquitin-conjugating enzyme E2 N (Homo sapiens, UniProt P61088).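 Note: Dose-response confirmation in a TR-FRET assay detecting UBC13-driven polyubiquitin chain formation, inhibition measured.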
T5 sequence (P61088 whole entry): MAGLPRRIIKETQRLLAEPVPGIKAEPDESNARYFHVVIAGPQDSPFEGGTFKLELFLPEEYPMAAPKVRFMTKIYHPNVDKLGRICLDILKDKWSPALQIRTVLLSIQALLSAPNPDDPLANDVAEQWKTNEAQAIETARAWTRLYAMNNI
Type of test: functional.

Test [19] has as its target Transitional endoplasmic reticulum ATPase (Homo sapiens, UniProt P55072, C522A). The experiment in a line: Luminescence counterscreen assay for p97 inhibitors: dose response biochemical high throughput screening assay to identify inhibitors of the C522A mutant p97 ATPase: synthesized compounds. [Related pubchem assays: 1481, 1517, 1551 ]. A general note: A counterscreen serves to expose hits that act by an unwanted route or on another target.

A further test deals with Neutrophil collagenase (Homo sapiens, UniProt P22894). The experiment in a line: MMP13 inhibition and MMP selectivity, late-stage follow-up, selectivity assay for MMP13 inhibitor project, biochemical, probe development, late stage results, panel member MMP-8 [IC50 Assay] (AID 2067).
The next test addresses Collagenase 3 (Homo sapiens, UniProt P45452). The experiment in a line: MMP13 inhibition and MMP selectivity, late-stage follow-up, selectivity assay for MMP13 inhibitor project, biochemical, probe development, late stage results, panel member MMP-13 [IC50 Assay] (AID 2067).
Test [20] addresses G2/mitotic-specific cyclin-B1 (Homo sapiens, UniProt P14635). Briefly: G2/M cell cycle arrest in HeLa, late-stage follow-up, mechanism study for Wee1 degradation inhibitor project, FACS, panel member Cyclin B Degradation (AID 2088).
A further test addresses Wee1-like protein kinase (Homo sapiens, UniProt P30291). Briefly: G2/M cell cycle arrest in HeLa, late-stage follow-up, mechanism study for Wee1 degradation inhibitor project, FACS, panel member Wee1 Degradation (AID 2088).
The target in test [21] is Melanin-concentrating hormone receptor 1 (Homo sapiens, UniProt Q99705). Briefly: Late-stage fluorescence-based counterscreen for antagonists of the G-protein coupled receptor 7 (GPR7): cell-based dose response assay to identify antagonists of the melanin-concentrating hormone receptor 1 (MCHR1). [Related pubchem assays (depositor defined):AID1861, AID1880, AID1952, AID2148, AID2251, AID2257, AID485339]. Type of test: functional.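 Note: stimulated with 30 nM MCH peptide agonist.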

Test [22] concerns the target T6, Neuropeptides B/W receptor type 1 (Homo sapiens, UniProt P48145).
T6 sequence (P48145 whole entry): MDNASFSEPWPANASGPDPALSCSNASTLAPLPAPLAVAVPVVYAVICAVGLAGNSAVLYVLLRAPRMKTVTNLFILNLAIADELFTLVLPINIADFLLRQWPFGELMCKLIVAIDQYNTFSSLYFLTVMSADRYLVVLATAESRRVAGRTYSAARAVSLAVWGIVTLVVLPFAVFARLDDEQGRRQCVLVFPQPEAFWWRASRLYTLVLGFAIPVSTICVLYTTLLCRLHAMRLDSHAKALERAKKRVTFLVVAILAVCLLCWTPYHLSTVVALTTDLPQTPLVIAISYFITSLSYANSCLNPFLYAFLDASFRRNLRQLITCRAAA
Briefly: GPR7 antagonist potency, late-stage follow-up, cell-based, fluorescence, dose response (AID 463251). Type of test: functional.

T4 sequence (P98170 whole entry): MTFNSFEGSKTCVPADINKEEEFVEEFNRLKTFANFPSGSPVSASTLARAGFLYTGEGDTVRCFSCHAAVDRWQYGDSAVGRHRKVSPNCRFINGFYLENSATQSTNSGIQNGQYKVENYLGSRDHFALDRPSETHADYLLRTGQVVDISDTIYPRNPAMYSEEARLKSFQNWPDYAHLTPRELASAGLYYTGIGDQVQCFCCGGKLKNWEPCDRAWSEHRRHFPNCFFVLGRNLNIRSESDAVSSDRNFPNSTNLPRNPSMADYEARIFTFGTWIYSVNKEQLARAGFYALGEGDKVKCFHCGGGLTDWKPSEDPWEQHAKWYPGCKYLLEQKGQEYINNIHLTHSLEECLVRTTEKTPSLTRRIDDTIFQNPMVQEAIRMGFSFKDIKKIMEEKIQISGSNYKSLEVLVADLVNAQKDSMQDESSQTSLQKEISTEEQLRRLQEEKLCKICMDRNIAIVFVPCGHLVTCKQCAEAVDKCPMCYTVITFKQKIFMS
Eukaryotic translation initiation factor 4E, sequence (P63073 whole entry): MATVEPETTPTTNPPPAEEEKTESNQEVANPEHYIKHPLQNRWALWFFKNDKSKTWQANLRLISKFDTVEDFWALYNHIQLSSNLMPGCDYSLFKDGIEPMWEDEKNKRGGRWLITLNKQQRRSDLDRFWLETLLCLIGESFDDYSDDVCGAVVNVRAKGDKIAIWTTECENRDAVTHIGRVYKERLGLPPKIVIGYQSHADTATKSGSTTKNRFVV
Neutrophil collagenase, sequence (P22894 whole entry): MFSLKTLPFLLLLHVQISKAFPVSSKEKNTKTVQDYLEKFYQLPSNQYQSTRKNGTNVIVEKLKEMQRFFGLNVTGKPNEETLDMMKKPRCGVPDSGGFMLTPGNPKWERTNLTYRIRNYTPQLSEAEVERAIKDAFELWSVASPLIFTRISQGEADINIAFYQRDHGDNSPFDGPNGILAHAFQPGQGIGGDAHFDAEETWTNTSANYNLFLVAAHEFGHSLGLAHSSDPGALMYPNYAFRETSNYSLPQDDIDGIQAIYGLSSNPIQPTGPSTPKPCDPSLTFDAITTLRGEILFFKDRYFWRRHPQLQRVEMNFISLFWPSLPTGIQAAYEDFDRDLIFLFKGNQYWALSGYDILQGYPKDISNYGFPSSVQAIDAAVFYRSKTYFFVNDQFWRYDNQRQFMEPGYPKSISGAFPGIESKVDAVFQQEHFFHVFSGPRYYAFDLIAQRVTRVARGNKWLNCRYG
Glyceraldehyde-3-phosphate dehydrogenase, sequence (P04406 whole entry): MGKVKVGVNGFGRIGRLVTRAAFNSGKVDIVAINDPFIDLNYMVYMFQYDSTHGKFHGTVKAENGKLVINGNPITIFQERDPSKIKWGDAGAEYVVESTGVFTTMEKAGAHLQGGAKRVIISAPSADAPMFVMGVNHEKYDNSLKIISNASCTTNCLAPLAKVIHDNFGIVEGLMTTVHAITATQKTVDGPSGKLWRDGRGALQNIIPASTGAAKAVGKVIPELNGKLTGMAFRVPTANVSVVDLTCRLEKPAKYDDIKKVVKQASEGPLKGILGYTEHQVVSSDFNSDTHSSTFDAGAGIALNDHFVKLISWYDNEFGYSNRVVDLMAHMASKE
Melanin-concentrating hormone receptor 1, sequence (Q99705 whole entry): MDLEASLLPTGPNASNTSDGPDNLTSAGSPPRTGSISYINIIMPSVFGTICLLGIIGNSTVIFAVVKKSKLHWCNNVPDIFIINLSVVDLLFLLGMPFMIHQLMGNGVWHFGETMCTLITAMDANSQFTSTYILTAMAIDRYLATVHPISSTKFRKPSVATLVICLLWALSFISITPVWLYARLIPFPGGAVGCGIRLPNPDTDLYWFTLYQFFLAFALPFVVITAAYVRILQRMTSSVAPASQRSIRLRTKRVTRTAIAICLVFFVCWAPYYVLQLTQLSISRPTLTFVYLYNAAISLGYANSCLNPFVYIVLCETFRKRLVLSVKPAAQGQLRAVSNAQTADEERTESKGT
Large T antigen, sequence (P03070 whole entry): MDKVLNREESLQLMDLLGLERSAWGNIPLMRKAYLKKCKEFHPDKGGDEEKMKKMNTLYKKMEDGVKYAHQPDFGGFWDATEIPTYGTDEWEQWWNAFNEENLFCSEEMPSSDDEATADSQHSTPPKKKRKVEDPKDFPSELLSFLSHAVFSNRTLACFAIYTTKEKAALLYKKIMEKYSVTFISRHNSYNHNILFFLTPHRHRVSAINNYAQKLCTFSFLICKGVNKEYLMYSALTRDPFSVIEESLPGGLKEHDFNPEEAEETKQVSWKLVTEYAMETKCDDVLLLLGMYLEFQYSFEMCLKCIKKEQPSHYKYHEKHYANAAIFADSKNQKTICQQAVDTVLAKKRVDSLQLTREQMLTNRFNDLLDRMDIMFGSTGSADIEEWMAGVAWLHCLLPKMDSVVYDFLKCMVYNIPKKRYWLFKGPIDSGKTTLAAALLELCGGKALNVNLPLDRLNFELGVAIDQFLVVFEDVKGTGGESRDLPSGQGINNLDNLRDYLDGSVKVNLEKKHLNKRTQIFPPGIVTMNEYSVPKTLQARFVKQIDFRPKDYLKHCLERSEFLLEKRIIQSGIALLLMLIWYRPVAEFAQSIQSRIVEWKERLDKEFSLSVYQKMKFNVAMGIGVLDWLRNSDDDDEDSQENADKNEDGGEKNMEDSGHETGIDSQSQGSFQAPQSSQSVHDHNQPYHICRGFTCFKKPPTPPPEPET
Transitional endoplasmic reticulum ATPase (Homo sapiens, UniProt P55072), sequence (P55072 whole entry): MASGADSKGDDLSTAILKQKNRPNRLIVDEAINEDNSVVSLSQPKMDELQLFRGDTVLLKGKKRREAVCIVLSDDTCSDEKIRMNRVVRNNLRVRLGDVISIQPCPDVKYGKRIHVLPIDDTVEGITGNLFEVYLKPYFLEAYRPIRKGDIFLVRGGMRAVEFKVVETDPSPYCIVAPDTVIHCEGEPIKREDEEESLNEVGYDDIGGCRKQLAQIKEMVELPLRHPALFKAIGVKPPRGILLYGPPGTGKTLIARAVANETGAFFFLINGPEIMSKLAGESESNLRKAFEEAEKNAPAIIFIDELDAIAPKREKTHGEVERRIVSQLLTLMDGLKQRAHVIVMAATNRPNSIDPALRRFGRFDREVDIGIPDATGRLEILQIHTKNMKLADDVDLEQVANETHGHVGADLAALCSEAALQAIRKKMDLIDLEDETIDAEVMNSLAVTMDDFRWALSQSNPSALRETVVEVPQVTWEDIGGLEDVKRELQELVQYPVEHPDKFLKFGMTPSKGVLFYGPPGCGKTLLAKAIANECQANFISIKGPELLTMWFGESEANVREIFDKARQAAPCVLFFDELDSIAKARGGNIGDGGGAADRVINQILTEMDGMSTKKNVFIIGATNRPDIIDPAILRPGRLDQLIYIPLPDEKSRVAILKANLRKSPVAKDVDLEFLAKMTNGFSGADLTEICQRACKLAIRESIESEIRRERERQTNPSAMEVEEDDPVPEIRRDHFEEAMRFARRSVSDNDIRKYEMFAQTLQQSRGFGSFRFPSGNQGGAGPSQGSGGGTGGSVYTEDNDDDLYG
Heat shock cognate 71 kDa protein, sequence (P11142 whole entry): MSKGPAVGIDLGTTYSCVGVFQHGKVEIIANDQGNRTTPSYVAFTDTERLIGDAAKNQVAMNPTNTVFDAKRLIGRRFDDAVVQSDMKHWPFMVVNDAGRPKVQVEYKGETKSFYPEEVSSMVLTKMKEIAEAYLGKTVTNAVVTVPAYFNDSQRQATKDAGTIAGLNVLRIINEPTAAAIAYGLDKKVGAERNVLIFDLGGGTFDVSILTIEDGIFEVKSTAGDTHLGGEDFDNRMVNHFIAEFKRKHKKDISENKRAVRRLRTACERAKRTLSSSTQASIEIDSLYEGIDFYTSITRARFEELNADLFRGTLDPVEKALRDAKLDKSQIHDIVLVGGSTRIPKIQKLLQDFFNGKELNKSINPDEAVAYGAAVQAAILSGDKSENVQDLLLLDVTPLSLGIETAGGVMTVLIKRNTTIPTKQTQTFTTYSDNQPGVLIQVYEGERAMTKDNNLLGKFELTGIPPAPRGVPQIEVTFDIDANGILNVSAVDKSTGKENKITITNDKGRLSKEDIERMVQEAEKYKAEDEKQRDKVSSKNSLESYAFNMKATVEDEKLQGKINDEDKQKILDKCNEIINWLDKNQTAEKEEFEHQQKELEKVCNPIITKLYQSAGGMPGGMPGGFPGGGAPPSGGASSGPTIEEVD
Heat shock 70 kDa protein 1A, sequence (P0DMV8 whole entry): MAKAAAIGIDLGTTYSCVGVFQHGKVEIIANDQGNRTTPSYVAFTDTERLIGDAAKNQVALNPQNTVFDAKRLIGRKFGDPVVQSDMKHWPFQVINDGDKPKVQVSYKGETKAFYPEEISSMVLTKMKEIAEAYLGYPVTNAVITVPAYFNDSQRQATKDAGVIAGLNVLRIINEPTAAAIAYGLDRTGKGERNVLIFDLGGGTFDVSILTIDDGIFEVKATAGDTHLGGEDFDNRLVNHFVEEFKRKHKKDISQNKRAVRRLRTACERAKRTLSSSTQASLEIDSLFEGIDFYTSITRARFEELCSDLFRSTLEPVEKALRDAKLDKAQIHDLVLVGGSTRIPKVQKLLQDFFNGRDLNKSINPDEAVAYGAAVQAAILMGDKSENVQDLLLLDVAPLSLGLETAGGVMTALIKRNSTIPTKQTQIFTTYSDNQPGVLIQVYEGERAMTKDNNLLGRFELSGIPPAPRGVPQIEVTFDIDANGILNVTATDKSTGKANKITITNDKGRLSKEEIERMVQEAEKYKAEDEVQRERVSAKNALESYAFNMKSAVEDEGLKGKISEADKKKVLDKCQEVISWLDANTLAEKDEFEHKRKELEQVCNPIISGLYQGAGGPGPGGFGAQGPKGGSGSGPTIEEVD

By AC50 is commonly meant the concentration giving half of the maximal activity seen. Broadly, the IC50 is the concentration that gives 50% inhibition. By EC50 is commonly meant the midpoint of the concentration-response curve. Take `CCOC(=O)c1c(C)nc2cc(C)ccn12`: the AC50 was 69.7 µM (active) in the test with HeLa and 285 µM (active) in the test with Salmon testes DNA. The IC50 in the test “cells [1]” is 28.4 µM (active). The EC50 in the test “cells [2]” and in “cells [3]” was > 350 µM (not active) throughout.
As for `CCOC(=O)c1ccc2c(c1)C1C=CCC1C(C(=O)O)N2` (centres undefined), the IC50 was 14.7 µM (active) in test [4]; 27 µM (active) in test [5]; > 10 µM (not active) in [6]; 2.18 µM (active) in test [7]; 95.4 µM (active) in test [8]; 0.997 µM (active) in [9]. Besides, the IC50 on Bcl-2-like protein 10 is 1.08 µM (active); on Large T antigen it was 14.2 µM (active); in test [10], 9.87 µM (active); in test [11], > 1.56 µM (inactive); in test [12], 10.2 µM (active); in test [13] it was 5.56 µM (active). The IC50 in [14] is > 100 µM (not active).
With `N#Cc1ccc(Nc2nc(-c3ccc(O)cc3O)cs2)cc1C(F)(F)F`, in [15], the 50% effective concentration (EC50) was 9.59 µM (active). Moreover, the AC50 in test [16] was 4.98 µM (active). The results for the IC50 in test [17], in test [18] and in test [19] were 13.5 µM (not active), > 20 µM (inactive) and > 50 µM (not active), respectively.
As to `CCCCSc1nc(O)c2c(n1)CCC2`, the IC50 on Neutrophil collagenase and at Collagenase 3 was > 39.8 µM (active) in each case.
`Cc1cccc(OCC(=O)Nc2cc(C)nn2-c2nc(C)cc(=O)[nH]2)c1`: the EC50 in test [20] was > 49.7 µM (inactive); on Wee1-like protein kinase, > 16.6 µM (active).
With `CCOc1ccc(Oc2cnn(-c3ccc(C)cc3)c(=O)c2Cl)cc1`, the IC50 in test [21] was 18.2 µM (inactive); in test [22], 6.3 µM (active).
